Test results as given in patent US20240415878A1, “Compositions and Methods for Modulating Mitochondrial Function” (Board of Regents, The University of Texas System, priority 2021, published 2024).

Assays:
MCU = target: T1, MCU (Homo sapiens, UniProt Q8NE86); test: MCU-mediated mCa2+ uptake in permeabilized cells (spectrofluorometry); assay type: cell-based; details: permeabilized cells (HeLa, 10 μM per FIG. 10H legend)
T1 construct: endogenous in cells; host or cells: HeLa cells, permeabilized
T1 sequence (Q8NE86 51-351): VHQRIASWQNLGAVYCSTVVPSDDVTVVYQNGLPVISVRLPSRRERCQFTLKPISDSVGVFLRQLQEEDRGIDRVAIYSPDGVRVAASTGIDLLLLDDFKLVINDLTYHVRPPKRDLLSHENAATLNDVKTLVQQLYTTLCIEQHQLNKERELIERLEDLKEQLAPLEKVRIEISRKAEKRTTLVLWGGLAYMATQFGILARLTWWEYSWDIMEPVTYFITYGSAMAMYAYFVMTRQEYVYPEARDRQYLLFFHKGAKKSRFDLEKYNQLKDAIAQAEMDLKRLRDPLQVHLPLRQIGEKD
T1 sequence (Q9H4I9 48-107 partner limits assumed): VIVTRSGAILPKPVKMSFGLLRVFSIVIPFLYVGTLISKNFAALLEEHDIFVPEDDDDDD
Protocol: Bacterial CorA forms a pentameric complex that selectively drives Mg2+ uptake in an electrogenic manner. […] Mrs2 is the eukaryotic homologue of CorA and contains two transmembrane domains with a well-conserved F/Y-G-M-N motif; therefore, CorA blockers were tested to determine if they alter Mrs2-mediated mMg^2+ uptake (Moomaw and Maguire, 2008). Digitonin permeabilized hepatocytes were utilized to measure the inhibitory effect and determine its IC50. Permeabilized cells were treated with CPACC followed by a 1 mM bolus of MgCl2 (FIG. 10B). A 1 mM Mg^2+ bolus was added after baseline recording, and the extramitochondrial Mg^2+ clearance was used as a read-out for Mrs2-mediated mMg^2+ uptake using Mag-Green as a Mg^2+ indicator. […] We next investigated Mrs2 inhibition in intact hepatocytes loaded with Mag-Green-AM. […] Next CPACC was examined to determine if it had any effect on MCU-mediated mCa^2+ uptake in permeabilized cells. […] The availability of the compound to intact cells was measured using graphite furnace atomic absorption spectroscopy (GFAAS) and bicinchoninic acid in parallel.
Spectrofluorimetric measurement of mitochondrial Mg^2+ and Ca^2+ dynamics and citrate mediated MagGreen fluorescence quenching. Fluorescence measurements were conducted in a multiwavelength excitation dual wavelength emission spectrofluorometer (Delta RAM, PTI, HORIBA). […]

[1] = HFD-fed WT mice treated with CPACC i.p.; assay type: in vivo
Protocol: CPACC treatment enhances adipose browning and lowers whole body weight. Given the potent mMg^2+ uptake inhibiting properties and low toxicity of CPACC, we hypothesized that CPACC could mimic Mrs2^−/− cellular phenotype. WT hepatocytes isolated from over 12 months old mice were treated with 50 μM CPACC for 48 hours. Control and CPACC treated hepatocytes were stained with BODIPY and TMRE for intracellular tracing using confocal imaging. […] Next it was determined if CPACC treatment affects the mitochondrial oxygen consumption rate. Freshly isolated WT hepatocytes were treated with 5-25 μM concentrations of CPACC for 16 hours before measurement of oxygen consumption rate. […] Since it was observed an enhancement of basal OCR in CPACC treated hepatocytes, the extracellular acidification rate was measured in control and CPACC treated hepatocytes and found it to be higher in the CPACC condition indicating higher glycolytic activity (FIG. 11G). Having observed that pharmacologic blockade of Mrs2 by CPACC reduced lipid droplet size and enhanced mitochondrial function, it was asked whether in vivo administration of CPACC lowers body weight gain. 12 weeks HFD-fed WT mice were treated with CPACC (20 mg/kg) via intraperitoneal injection every three days over 6 weeks. […] Because it was observed browning/beiging in Mrs2^−/− iWAT, UCP1 expression by RT-qPCR was tested, confirming induction in the iWAT of CPACC treated mice.
Animal models. Wild-type (WT) and Mrs2^−/− (KO) C57BL/6J mice were housed and maintained in our animal breeding facility with prior approval and accordance with the Institutional Animal Care and Use Committee (IACUC). Mice were fed a Western Diet (WD; Research Diets D09100310), a standard Chow Diet (CD; Envigo 7012), or a High Fat Diet (HFD; Research Diets D12492). For most experiments, WT and KO mice were maintained on the WD or the CD starting at 12 weeks of age. With termination at 12 months. WT mice maintained on a HFD starting at 6 weeks were administered control (saline) or CPACC (20 mg/kg BW in saline) I.P. every 3 days starting after 6 weeks of maintained diet. Body weight, health, and food were measured regularly for all groups. […]
Plasma alanine transaminase activity and citrate measurements. Liver function and damage was determined by measuring alanine transaminase (ALT). The ALT activity in the plasma was determined using the Alanine Transaminase Activity Assay Kit (Abcam ab105134) following manufacturer's protocol. The plasma ALT levels over two different time points were obtained and corresponding ALT activity was determined by reading in a plate reader at 570 nm. […] Citrate levels were determined using the Citrate Assay Kit (Abcam ab83396) by reading in a plate reader at 570 nm following the manufacturer's protocol. […]

[NH2][Co]([NH2])([NH2])([NH2])([NH2])[Cl] [CPACC, chloropentaammine cobalt (III) chloride]
MCU-mediated mCa^2+ uptake (MCU): did not inhibit | RT-qPCR analysis of WAT tissue (HIF-1α pathway) ([1]; HFD mice, 20 mg/kg i.p.): transcriptional signature of HIF-1α activation | UCP1 expression in iWAT by RT-qPCR ([1]; HFD-fed WT mice, 20 mg/kg i.p.): induction | body weight gain ([1]; HFD-fed WT mice, 20 mg/kg i.p. every three days over 6 weeks): restricted body weight gain | Plasma ALT levels ([1]; HFD-fed WT mice, 20 mg/kg i.p., versus control group): lower
